In US6552066B1, “Protein tyrosine kinase inhibitors for treating osteoarthritis” (priority 1995, dated 2003):

Columns and labels:
[1] = system: IL-1 induced release of 35S-labelled proteoglycans from chondrocytes; test: Chondrocyte cell culture matrix breakdown assay (IL-1 induced 35S release); format: cell-based, calf (bovine); conditions: for inhibitory effect on IL-1 induced release of 35S-labelled proteoglycans: first experiment; for percent inhibition of IL-1 induced 35S release: repeated assay
Method: A cell culture assay was used to measure the ability of the test compounds to slow the degradation of the extracellular matrix by a metalloproteinase. This assay measured the amount ^35S released from chondrocytes grown in a media with ^35S labeled sodium sulfate. The cell culture assay was carried out as follows:
Two or three 1 to 3 week old calf joints were obtained from an abattoir. The proximal end of the shank was about 4-5′ long to facilitate immobilization in the holder. The joint was kept cool and transported on ice. The exterior of the intact joints was washed well with a suitable anti-microbial soap, rinsed clean with warm water, rinsed in betadine and then finally rinsed with 70% ethanol. Up to this point all steps were done in a manner to ensure that the joint was kept as clean as possible. All subsequent steps were performed in a sterile field (i.e., in a Edgeguard laminar flow tissue culture hood). The joint was immobilized and the synovial fluid was aspirated with a needle and syringe. The joint was then cut open to expose the articular cartilage using a #21 scalpel. Using locking hemostats, forceps and a #15 scalpel, the cartilage was excised in full thickness pieces. Care was taken not to cut too deep into the subchondral bone to prevent bleeding. The cartilage pieces were placed into a 50 mL centrifuge tube containing 25 mL of Delbecco's phosphate buffered saline (D-PBS) supplemented with 1% antibiotic solution (penicillin, streptomycin and fungizone; GIBCO/BRL). The slices from each joint were then placed into separate 50 mL centrifuge tubes. The D-PBS was decanted and replaced with 25 mL of fresh D-PBS supplemented with antibiotics and subsequently agitated gently.
The cartilage pieces were transferred to a fresh 50 mL centrifuge tube and rinsed once more with 25 mL of D-PBS minus antibiotics. An enzymatic digestion solution containing 1 mg/mL of hyaluronidase in serum-free 1:1 DMEM/Ham's F-12 (DMEM/F12) was prepared. This solution was filter sterilized with 0.22 mm Milex-GV filter and kept on ice until ready to use. The cartilage pieces were digested with approximately 5 mL of hyaluronidase solution per joint for 2×15 minutes at 37° C. in the 50 mL centrifuge tube with gentle agitation at the 15 minute mark. This procedure removed residual hyaluronic acid from the surface of the chips. The enzymatic digestion solution was then aspirated and the cartilage pieces were rinsed with 25 mL of D-PBS.
A second enzymatic digestion solution containing 2.5 mg trypsin and 2 mg collagenase P per mL serum-free DMEM/F12 was prepared. This solution was also filter sterilized with a 0.22 mm Millex-GV filter and kept on ice until ready to use. The cartilage pieces were digested with approximately 5 mL of trypsin: collagenase solution per joint for 2×15 minutes at 37° C. in the 50 mL centrifuge tube with gentle agitation at the 15 minute mark. This procedure removed the synovial fibroblasts and any adherent connective tissue from the surface of the chips. The enzymatic digestion solution was then carefully removed and saved and the cartilage pieces were rinsed with 25 mL of D-PBS.
A third enzymatic solution containing 2 mgs of collagenase P (BMB) per mL serum-free DMEM/F12 was prepared. This solution was filter sterilized with a 0.22 mm Millex-GV filter and kept on ice until ready to use. The pre-digested cartilage pieces were finally digested with approximately 20 mL of enzymatic digestion solution per joint for 5-6 hours at 37° C. in a Bellco stirring digestion flask, at which point the cartilage was fully digested away.
The enzymes in the synovial fibroblast and chondrocyte digest were neutralized by addition of an equal volume of DMEM/F12 supplemented with 5% fetal bovine serum. Fibroblasts were plated in DMEM at a cellular density of 6.6×10^3 cells per cm^2. […]

[2] = system: IL-1-induced aggrecan degradation; test: Aggrecan degradation in IL-1-stimulated chondrocytes, 2-B-6 antibody immunoblot; format: cell-based, bovine
Method: (§1) Primary bovine articular chondrocytes from calf adio-carpal joints were isolated and cultured as above in Example 1, up to and including the addition of the following protein kinase inhibitors: 1) Protein kinase A (PKA) inhibitors; 0.5 μM H88 (Seikagaku Corp.), 0.5 μM H89 (Seikagaku Corp.); 2) Protein kinase C (PKC) inhibitors; 0.5 μM Calphostin C (Calbiochem), 1.0 μM Chelerythrine (Calbiochem); 3) CA^2+/Calmodulin Kinase II inhibitor; 5.0 μM KN93 (Seikagaku Corp.); 4) Protein tyrosine kinase (PTK) inhibitors; 50 μM Genistein (Calbiochem), 10 μM Herbimycin A (Calbiochem). After the 24 hour IL-1α incubation, the media of each sample was measured, and collected on ice in the presence of the protease inhibitors EGTA (5 mM), Pefaloc (1 mM), pepstatin (1 μg/ml), and NEM (5 mM). Media were concentrated approximately 40 fold using a Centriprep-10 ultrafiltration device (Amicon).
(§2) Proteoglycans contained within the media were deglycosylated by incubations with chondroitinase ABC, keratinase, and keratinase II following the procedure of Sandy et al. J Biol Chem (1991) 266:8683-8685 and Sandy et al. J. Clin Invest (1992) 89:1512-1516. Samples of deglycosylated media were subjected to 4-15% gradient SDS-PAGE and transferred to nitrocellulose membranes (2 ml-worth and 6 ml-worth of media were used for 2-B-6 and BC-3 immunoblotting, respectively.) The membranes were blocked with 1% nonfat dry milk and 1% BSA, and then incubated in either the BC-3 or 2-B-6 primary monoclonal antibody for 1 hour. The 2-B-6 antibody detects chondroitin sulfate stubs on chondroitinase-treated proteoglycans (both intact and degradation products. BC-3 antibody detects “ARGSV . . . ,” the new N-terminus (“neoepitope”) resulting from cleavage of aggrecan interglobular domain at Glu^373/ALA^374 by aggrecanase. It is of note to mention that the BC-3 and 2-B-6 antibodies were of low sensitivity. Following 3 washes, membranes were incubated in either alkaline phosphatase-conjugated goat anti-mouse (for the 2-B-6 blot) or biotinylated goat anti-mouse (for the BC-3 blot); followed by alkaline phosphatase-conjugated streptavidin/biotin complex). After washing 3 times, immunoreactive proteins were detected using NBT/BCIP (Sigma) colorimetric substrate.
The 2-B-6 antibody detected intact aggrecan (the uppermost band) and several aggrecan degradation products, along with decorin and biglycan (50K doublet), in the IL-1-treated media samples. […] The bands in the IL-1 sample that are seen at 230K, 200K, 130K and 100K have been previously identified by sequence analysis to result from IL-1-induced “aggrecanase” cleavage.
(§3) A repeat of the Western immunoblotting experiment using 2-B-6 antibodies was performed. Furthermore, additional inhibitors from four enzyme families were examined: 1) Protein tyrosine kinase (PTK) inhibitors; 1 μM Tryphostin AG 1296 (Calbiochem), 50 μM Tyrphostin A25 (AG 82) (Calbiochem), 50 μM Tyrphostin AG 126 (Calbiochem), 50 μM Tyrphostin B56 (AG 556) (Calbiochem), 20 μM DAPH (Calbiochem); 2) Guanylate cyclase inhibitor; 10 μM LY-83583 (Calbiochem); 3) Casein kinase I inhibitor; 20 μM CKI-7 (Seikagaku Corp.); and 4) Protein kinase G (PKG) and PKA inhibitor; 5.0 μM H89.

prostromelysin protein = test: Western immunoblot of IL-1-induced prostromelysin protein in primary bovine chondrocytes; format: cell-based; conditions: for effect on IL-1-induced prostromelysin levels: first experiment; for effect on IL-1α-induced prostromelysin protein levels: repeat experiment
Method: Isolation and culturing of primary bovine articular chondrocytes, as well as addition of inhibitors were performed as indicated above in Example 4. The following protein kinase inhibitors were tested: 1) Protein kinase A (PKA) inhibitors; 0.5 μM H88 (Seikagaku Corp.), 0.5 μM H89 (Seikagaku Corp.), 2) Protein kinase C (PKC) inhibitors; 0.5 μM Calphostin C (Calbiochem), 1.0 μM Chelerythrine (Calbiochem); 3) CA^2+/Calmodulin Kinase II inhibitor; 5.0 μM KN93 (Seikagaku Corp.); 4) Protein tyrosine kinase (PTK) inhibitors; 50 μM Genistein (Calbiochem), 10 μM Herbimycin A (Calbiochem).
After the 24 hour IL-1α incubation, the media of each sample was measured and collected on ice in the presence of the protease inhibitors EGTA (5 mM), Pefabloc (1 mM), pepstatin (1 μg/ml), and NEM (5 mM). Media were concentrated approximately 40 fold using a Centriprep-10 ultrafiltration device (Amicon). Concentrated samples were normalized to equivalent starting concentrations (cell number/culture volume), were reduced in the presence of SDS Laemmli sample buffer and electrophoresed in a precast 12% polyacrylamide gel (BioRad). Protein samples were then electroblotted to nitrocellulose and immunodetected using a primary antibody that recognizes both prostromelysin and stromelysin. Immunoreactive bands were visualized with the ABC detection (Pierce) and an NBT/BCIP color reagent (Sigma).
as §3, with “antistromelysin” for “2-B-6”, “inhibitors:” for “inhibitors;”, “Tyrphostin” for “Tryphostin”, “126” for “126 (Calbiochem), 50 μM Tyrphostin B56 (AG 556) (Calbiochem), 20 μM DAPH”

[3] = system: aggrecanase cleavage of aggrecan (230K fragment); test: Aggrecanase neoepitope in IL-1-stimulated chondrocytes, BC-3 antibody immunoblot; format: cell-based, bovine
Method: as §1, §2

[4] = system: primary bovine articular chondrocytes; test: In vitro MTT cytotoxicity assay; format: cell-based; conditions: 1 μM; 20 hours incubation + 4 hours MTT
From the text: The evaluation of cytotoxicity of compounds by in vitro methods allows one to establish criteria which allow rank ordering among compounds. These methods assess cell permeability, release of cytosolic enzymes, and oxidative potential of cells. The use of tetrazolium dyes to assess cytotoxicity has been established in the area of oncology, where such assays were developed to assess the cytotoxic potential of various chemotherapeutic agents. We have adapted the use of the MTT (3-(4,5-dimethylthiazol-2-yl)-2,5-diphenyl tetrazolium bromide) in an assay using primary bovine articular chondrocytes. The procedure for this assay is given below.
Chondrocytes are isolated from bovine calf radio-carpal joints as described in Example 1. Cells are plated in two 96-well plates at 4×10^4 cells per well, in DMEM/F12 media supplemented with 10% fetal bovine serum. The cultures are refed on days 4, 7, 11, 14, 18, 21 and 24. On day 27, the cells are rinsed with PBS, and incubated for 20 hours with 0.2 ml/well of serum-free DMEM/F12 plus 0.1% DMSO, and the test compounds. Genistein (50 μM), Herbimycin (10 μM) and Staurosporine (1 μM) were each used as test compounds. […] The 96-well plate is then read in a microplate reader at 560 nm, with subtraction of absorbance at 750 nm to account for cell debris.

bovine cartilage explant = conditions: cited from earlier work
protein kinase C gamma = protein kinase C gamma (Homo sapiens, UniProt P05129); conditions: at 100 μM; cited from earlier work
protein kinase C alpha = protein kinase C alpha (Homo sapiens, UniProt P17252); conditions: at 100 μM; cited from earlier work
protein kinase C beta = protein kinase C beta (Homo sapiens, UniProt P05771); conditions: at 100 μm; cited from earlier work
[5] = system: Ca^2+-calmodulin dependent protein kinase II; conditions: cited from earlier work

Sequence of protein kinase C beta (P05771 whole entry): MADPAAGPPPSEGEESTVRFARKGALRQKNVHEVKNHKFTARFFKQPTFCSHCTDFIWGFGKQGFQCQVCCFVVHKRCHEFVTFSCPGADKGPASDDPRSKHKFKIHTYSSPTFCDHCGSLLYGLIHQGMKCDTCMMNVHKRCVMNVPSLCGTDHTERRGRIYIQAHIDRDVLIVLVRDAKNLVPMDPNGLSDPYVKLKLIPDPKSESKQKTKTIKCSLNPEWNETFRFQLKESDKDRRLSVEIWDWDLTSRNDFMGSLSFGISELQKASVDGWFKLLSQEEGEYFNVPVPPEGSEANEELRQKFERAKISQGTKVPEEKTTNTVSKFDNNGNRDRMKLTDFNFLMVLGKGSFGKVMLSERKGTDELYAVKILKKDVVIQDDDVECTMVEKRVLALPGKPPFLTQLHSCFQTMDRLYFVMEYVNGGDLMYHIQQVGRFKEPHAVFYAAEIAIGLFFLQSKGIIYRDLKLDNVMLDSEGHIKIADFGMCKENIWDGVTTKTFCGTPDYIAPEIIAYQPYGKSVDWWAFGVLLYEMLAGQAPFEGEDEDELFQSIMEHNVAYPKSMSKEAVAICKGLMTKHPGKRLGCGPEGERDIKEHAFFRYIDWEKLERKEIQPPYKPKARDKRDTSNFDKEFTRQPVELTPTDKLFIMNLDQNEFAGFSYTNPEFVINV

Compound: COc1ccc2c(c[n+](C)c3c4cc5c(cc4ccc23)OCO5)c1OC [Chelerythrine]
- inhibitory effect on IL-1 induced release of 35S-labelled proteoglycans ([1]; 1 μM): no effect
- band pattern (ratio of intact aggrecan to 230K fragment), 2-B-6 ([2]; 1.0 μM): pattern similar to IL-1 alone

Compound: O=S(=O)(NCCNC/C=C/c1ccc(Br)cc1)c1cccc2cnccc12 [H89]
- inhibitory effect on IL-1 induced release of 35S-labelled proteoglycans ([1]; 0.5 μM): no effect
- percent inhibition of IL-1 induced 35S release ([1]; 0.5 μM): Little or no inhibition
- effect on IL-1-induced prostromelysin levels (prostromelysin protein; 0.5 μM): no effect
- band pattern (ratio of intact aggrecan to 230K fragment), 2-B-6 ([2]; 0.5 μM): pattern similar to IL-1 alone
- BC-3 immunoreactive band at approximately 230K (aggrecanase-mediated fragment) ([3]; 0.5 μM): detected

Compound: COc1ccc(S(=O)(=O)N(CCO)c2ccccc2CN(C)C/C=C/c2ccc(Cl)cc2)cc1 [KN-93]
- inhibitory effect on IL-1 induced release of 35S-labelled proteoglycans ([1]; 5 μM): no effect
- effect on IL-1-induced prostromelysin levels (prostromelysin protein; 5.0 μM): no effect
- band pattern (ratio of intact aggrecan to 230K fragment), 2-B-6 ([2]; 5.0 μM): pattern similar to IL-1 alone
- BC-3 immunoreactive band at approximately 230K (aggrecanase-mediated fragment) ([3]; 5.0 μM): absence

Compound: O=C1C(Nc2ccccc2)=CC(=O)c2ncccc21 [LY-83583]
- effect on IL-1α-induced prostromelysin protein levels (prostromelysin protein; 10 μM): no effect

Compound: CN[C@@H]1C[C@H]2O[C@@](C)([C@@H]1OC)n1c3ccccc3c3c4c(c5c6ccccc6n2c5c31)C(=O)NC4 [Staurosporine]
- cytotoxicity, reduction of MTT dye [4]: reduction of MTT consistent with cytotoxicity

Compound: COc1cc2ncc(-c3ccccc3)nc2cc1OC [Tyrphostin AG 1296]
- percent inhibition of IL-1 induced 35S release ([1]; 1 μM): no inhibition
- effect on IL-1α-induced prostromelysin protein levels (prostromelysin protein; 1 μM): no effect
- inhibition of IL-1-induced aggrecan degradation, 2-B-6 ([2]; 1 μM, repeat experiment): no inhibitory effect

Compound: NC1=NC(=O)/C(=C2\CCNC(=O)c3[nH]c(Br)cc32)N1 [Z-hymenialdisine]
- inhibition of cartilage degradation in the bovine cartilage explant assay (bovine cartilage explant): inhibit cartilage degradation

Compound: NC1=N/C(=C2/CCNC(=O)c3[nH]ccc32)C(=O)N1 [debromohymenialdisine]
- inhibition of protein kinase C gamma (protein kinase C gamma): 108%
- inhibition of protein kinase C alpha (protein kinase C alpha): 97%
- inhibition of protein kinase C beta (protein kinase C beta): 95%
- inhibition of Ca2+-calmodulin dependent protein kinase II [5]: 94%

Compound: CKI-7
- percent inhibition of IL-1 induced 35S release ([1]; 20 μM): no inhibition
- effect on IL-1α-induced prostromelysin protein levels (prostromelysin protein; 20 μM): no effect

Compound: Calphostin C
- inhibitory effect on IL-1 induced release of 35S-labelled proteoglycans ([1]; 0.5 μM): no effect
- effect on IL-1-induced prostromelysin levels (prostromelysin protein; 0.5 μM): no effect
- band pattern (ratio of intact aggrecan to 230K fragment), 2-B-6 ([2]; 0.5 μM): pattern similar to IL-1 alone
- BC-3 immunoreactive band at approximately 230K (aggrecanase-mediated fragment) ([3]; 0.5 μM): detected
